In brackets after ≈: the same amount, converted by molar mass. Numbered stars: 1 amine (or outer) side, 2 acyl side, 3 side chain; on linkers, the order of the positions; unused ones are H or OH. Peptide text beside a SMILES is read from it. * marks the point of attachment. C20 diacid = O=C(O)CCCCCCCCCCCCCCCCCCC(=O)*; γGlu = O=C(O)[C@H](CCC(=O)[*:2])N[*:1]
Assay: Assay (IV) determination of solubility
Format: physicochemical
Protocol: Assay (IV)—Determination of Solubility
The mimylin peptide was dissolved in water at ˜500 nmol/ml and mixed 1:1 with a series of buffers (100 mM glycylglycine pH 3.0, 100 mM glycylglycine pH 4.0, 100 mM glycylglycine pH 5.0, 100 mM bistrispropane pH 6.0, 100 mM bistrispropane pH 6.5, 100 mM bistrispropane pH 7.0, 100 mM bistrispropane pH 7.5, 100 mM bistrispropane pH 8.0).

Solubility (pH 3.0)	Solubility (pH 4.0)	Solubility (pH 5.0)	Solubility (pH 6.0)	Solubility (pH 6.5)	Solubility (pH 7.0)	Solubility (pH 7.5)	Solubility (pH 8.0)	solubility at 18 h (pH 5.0) [µM]	Compound
≧200 μM	≧200 μM	≧200 μM	≧200 μM	≧200 μM	≧200 μM	≧200 μM	≧200 μM		CC(C)C[C@H](NC(=O)[C@H](C)NC(=O)[C@H](C)NC(=O)[C@@H](NC(=O)[C@H](CO)NC(=O)[C@H](CC(C)C)NC(=O)[C@H](CCC(=O)O)NC(=O)[C@H](CO)NC(=O)[C@H](C)NC(=O)CC[C@H](NC(=O)CCCCCCCCCCCCCCCCCCC(=O)O)C(=O)O)[C@@H](C)O)C(=O)NCC(=O)N[C@@H](CCCCN)C(=O)N[C@@H](CC(C)C)C(=O)N[C@@H](CO)C(=O)N[C@@H](C)C(=O)N[C@@H](CCC(=O)O)C(=O)N[C@@H](CC(C)C)C(=O)N[C@@H](Cc1cnc[nH]1)C(=O)N[C@@H](CCC(=O)O)C(=O)N[C@@H](CC(C)C)C(=O)N[C@@H](C)C(=O)N[C@H](C(=O)N[C@@H](Cc1ccc(O)cc1)C(=O)N1CCC[C@H]1C(=O)N[C@@H](CCCCN)C(=O)N[C@H](C(=O)N[C@@H](CCC(=O)O)C(=O)N[C@H](C(=O)NCC(=O)N[C@@H](CO)C(=O)NCC(=O)N[C@@H](CO)C(=O)N[C@@H](Cc1ccc(O)cc1)C(N)=O)[C@@H](C)O)[C@@H](C)O)[C@@H](C)O [compound 101, [N-terminal(C20 diacid-gGlu), des1, 12K, 23Y, 25K, 30S, 31G, 33Y]mimylin] ({C20 diacid-γGlu}-ASELSTAALGKLSAELHELATYPKTETGSGSY-NH2)
≧200 μM	≧200 μM		≧200 μM	≧200 μM	≧200 μM	≧200 μM	≧200 μM	156 (≈ 620 µg/mL)	CC(C)C[C@H](NC(=O)CNC(=O)[C@H](CO)NC(=O)[C@H](C)NC(=O)[C@H](CCC(=O)O)NC(=O)CC[C@H](NC(=O)CCCCCCCCCCCCCCCCCCC(=O)O)C(=O)O)C(=O)N[C@@H](CO)C(=O)N[C@H](C(=O)N[C@@H](C)C(=O)N[C@@H](C)C(=O)N[C@@H](CC(C)C)C(=O)NCC(=O)N[C@@H](CCCNC(=N)N)C(=O)N[C@@H](CC(C)C)C(=O)N[C@@H](CO)C(=O)N[C@@H](CCC(N)=O)C(=O)N[C@@H](CCC(=O)O)C(=O)N[C@@H](CC(C)C)C(=O)N[C@@H](Cc1cnc[nH]1)C(=O)N[C@@H](CCC(=O)O)C(=O)N[C@@H](CC(C)C)C(=O)N[C@@H](CCC(N)=O)C(=O)N[C@H](C(=O)N[C@@H](Cc1ccc(O)cc1)C(=O)N1CCC[C@H]1C(=O)N[C@@H](CCCNC(=N)N)C(=O)N[C@H](C(=O)N[C@@H](CCC(=O)O)C(=O)N[C@H](C(=O)NCC(=O)N[C@@H](CO)C(=O)NCC(=O)N[C@H](C(=O)N[C@@H](Cc1ccc(O)cc1)C(N)=O)[C@@H](C)O)[C@@H](C)O)[C@@H](C)O)[C@@H](C)O)[C@@H](C)O [compound 103, [N-terminal(C20 diacid-gGlu), 4G, 15Q, 21Q, 23Y, 30S, 31G, 32T, 33Y]mimylin] ({C20 diacid-γGlu}-EASGLSTAALGRLSQELHELQTYPRTETGSGTY-NH2)

Reference: patent US9593149B2, “Amylin and calcitonin receptor agonist” (Novo Nordisk A/S, priority 2014, dated 2017)
